Assay type in all cases: functional
Settings in all cases: read-out: Activity

The test system of assay [1] is PC-12. In words: Neuroprotective activity against amyloid beta(25-35)-induced cell death in rat PC12 cells assessed as cell viability at 10 uM incubated for 2 hrs prior to amyloid beta(25-35)-challenge measured after 24 hrs by MTT assay (reference value: 38.8 +/- 1%).
Assay [2] concerns PC-12. In words: Neuroprotective activity against H2O2-induced cell death in rat PC12 cells assessed as cell viability at 1 uM incubated for 2 hrs prior to H2O2-challenge measured after 24 hrs by MTT assay (reference value: 53.7 +/- 1.7%). For orientation: Tetrazolium assays rely on reduction of a dye to a coloured formazan, in cell work by metabolically active cells.
The test system of assay [3] is PC-12. Briefly: Neuroprotective activity against amyloid beta(25-35)-induced cell death in rat PC12 cells assessed as cell viability at 1 uM incubated for 2 hrs prior to amyloid beta(25-35)-challenge measured after 24 hrs by MTT assay (reference value: 38.8 +/- 1%).
In assay [4] the test system is PC-12. Briefly: Neuroprotective activity against H2O2-induced cell death in rat PC12 cells assessed as cell viability at 10 uM incubated for 2 hrs prior to H2O2-challenge measured after 24 hrs by MTT assay (reference value: 53.7 +/- 1.7%).
Assay [5] deals with PC-12. In words: Neuroprotective activity against H2O2-induced cell death in rat PC12 cells assessed as cell viability at 10 uM incubated for 2 hrs prior to H2O2-challenge measured after 24 hrs by MTT assay (reference value: 53.1 +/- 1.1%).
The test system of assay [6] is PC-12. In words: Neuroprotective activity against H2O2-induced cell death in rat PC12 cells assessed as cell viability at 1 uM incubated for 2 hrs prior to H2O2-challenge measured after 24 hrs by MTT assay (reference value: 53.1 +/- 1.1%).
The subject of assay [7] is PC-12. Briefly: Neuroprotective activity against amyloid beta(25-35)-induced cell death in rat PC12 cells assessed as cell viability at 10 uM incubated for 2 hrs prior to amyloid beta(25-35)-challenge measured after 24 hrs by MTT assay (reference value: 34.8 +/- 0.8%).
The subject of assay [8] is PC-12. Briefly: Neuroprotective activity against amyloid beta(25-35)-induced cell death in rat PC12 cells assessed as cell viability at 1 uM incubated for 2 hrs prior to amyloid beta(25-35)-challenge measured after 24 hrs by MTT assay (reference value: 34.8 +/- 0.8%).

For eleven compounds, viability results are on record in ChEMBL document CHEMBL2010779, “Dibenzocyclooctadiene lignans from Kadsura polysperma and their antineurodegenerative activities” (2012).

With `C/C=C(\C)C(=O)Oc1c(OC)c(OC)cc2c1-c1c(cc(OC)c(OC)c1OC)[C@H](O)[C@H](C)[C@H](C)C2` [METHYL SCHISANTHERIN F], the viability at 10 µM is 41% with PC-12 [1] and 53.4% in the assay with PC-12 [4]. For the same compound, the viability at 1 µM with PC-12 [2] is 50.4%; in the assay on PC-12 [3], 41.4%.
In the same order, the values of `C/C=C(\C)C(=O)O[C@H]1c2cc(OC)c(OC)c(OC)c2-c2c(cc3c(c2OC)OCO3)[C@H](OC(=O)CC)[C@H](C)[C@H]1C` are 39.3%, 60.7%, 54.6% and 43.1%.
For `COc1cc2c(c(OC)c1OC)-c1c(cc3c(c1OC)OCO3)[C@H](O)[C@@H](C)[C@@H](C)C2` [YUNNANKADSURIN B], the viability at 10 µM in the assay with PC-12 [5] turned out to be 53.3%; with PC-12 [7] it was 33.2%. Further, the viability at 1 µM was determined as 51% with PC-12 [6] and 35.2% with PC-12 [8].
With `COc1cc2c(c(OC)c1OC)-c1c(cc3c(c1OC)OCO3)[C@H](OC(=O)/C=C\c1ccccc1)[C@H](C)[C@H](C)C2` [POLYSPERLIGNAN F], the values for the viability at 10 µM in the assay on PC-12 [1] and in the assay on PC-12 [4] were 36.4% and 58.5%, respectively. Further, the viability at 1 µM stood at 55.2% in the assay on PC-12 [2] and 38.4% in the assay with PC-12 [3].
The like results for `C/C=C(/C)C(=O)Oc1c(OC)c(OC)cc2c1-c1c(cc(OC)c(OC)c1OC)[C@H](O)[C@H](C)[C@H](C)[C@H]2OC(=O)/C(C)=C\C` [POLYSPERLIGNAN I] were, in that order, 41.2%, 53.7%, 53.3% and 39%.
On to `COc1cc2c(c(OC)c1OC)-c1c(cc3c(c1OC)OCO3)[C@H](OC(C)=O)[C@H](C)[C@H](C)C2` [KADSURIN], for which the viability at 10 µM stood at 44% with PC-12 [5] and 32.9% in the assay on PC-12 [7]. The viability at 1 µM with PC-12 [6] was determined as 57.2%; in the assay with PC-12 [8], 35.1%.
In the same order, the values of `COc1cc2c(c(OC)c1OC)-c1c(cc3c(c1OC)OCO3)[C@H](OC(=O)/C=C/c1ccccc1)[C@H](C)[C@H](C)C2` [KADSUPHILINS A] are 52.5%, 32.3%, 53% and 35.3%.
The like results for `C/C=C(\C)C(=O)O[C@H]1c2cc3c(c(OC)c2-c2c(cc(OC)c(OC)c2OC)[C@H](OC(C)=O)[C@@H](C)[C@H]1C)OCO3` [POLYSPERLIGNAN B] were, in that order, 58.9%, 34.1%, 55.9% and 36.4%.
For the compound `C/C=C(/C)C(=O)O[C@H]1c2cc3c(c(OC)c2-c2c(cc(OC)c(OC)c2OC)[C@H](OC(=O)/C(C)=C\C)[C@@H](C)[C@H]1C)OCO3` [POLYSPERLIGNAN A], the figures for the viability at 10 µM in the assay on PC-12 [1] and in the assay with PC-12 [4] were 46.4% and 58.2%, respectively. For the same compound, the results for the viability at 1 µM in the assay on PC-12 [2] and with PC-12 [3] were 55.8% and 39.9%, respectively.
In the same order, the values of `COc1cc2c(c(OC)c1OC)-c1c(cc3c(c1OC)OCO3)[C@H](O)[C@H](C)[C@H](C)C2` [ISOGOMISIN O] are 33.3%, 55.8%, 48.8% and 38%.
In the same order, the values of `C/C=C(/C)C(=O)O[C@H]1c2cc3c(c(OC)c2-c2c(cc(OC)c(OC)c2OC)[C@H](OC(=O)/C=C/c2ccccc2)[C@@H](C)[C@H]1C)OCO3` [POLYSPERLIGNAN E] are 39.7%, 58.9%, 57.1% and 39%.
